Test results taken from ChEMBL document CHEMBL1201862, “PubChem BioAssay data set” (2004).
Values belong to the molecule of their own block, whether it stands above or below them. Calls of active or inactive are those of the source.

Legend:
Bcl-2-related protein A1 [1] = target: T1, Bcl-2-related protein A1 (Mus musculus, UniProt Q07440); test: Bfl-1 binding inhibitors, SAR follow-up, biochemical, fluorescence polarization (AID 1070)
T1 sequence (Q07440 whole entry): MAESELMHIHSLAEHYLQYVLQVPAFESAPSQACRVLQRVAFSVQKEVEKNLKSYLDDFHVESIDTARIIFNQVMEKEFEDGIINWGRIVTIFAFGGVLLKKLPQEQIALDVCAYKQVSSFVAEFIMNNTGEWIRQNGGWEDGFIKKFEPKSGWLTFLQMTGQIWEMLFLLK

[2] = target: Glyceraldehyde-3-phosphate dehydrogenase (Homo sapiens, UniProt P04406)
Bcl-2-related protein A1 [3] = target: T1, Bcl-2-related protein A1; test: small-molecule antagonists of Bfl-1/BH3 interaction – biochemical, TR-FRET, mouse Bfl-1, confirmation (AID 621);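 note: TR-FRET binding of GST-Bfl-1 to FITC-labelled Bid peptide via terbium antibody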
Cannabinoid receptor 1 [4] = target: T2, Cannabinoid receptor 1 (Homo sapiens, UniProt P21554); test: SAR analysis of agonists of the Cannabinoid Receptor 1 using an Image-Based Assay - Set 3. [Related pubchem assays (depositor defined):AID1961, AID1965]; type: functional
[5] = target: T3, G-protein coupled receptor 35 (Homo sapiens, UniProt Q9HC97); test: SAR analysis of Antagonists of the GPR35 Receptor using an Image-Based Assay - Set 4. [Related pubchem assays (depositor defined):[…]]; type: functional
[6] = target: T4, G-protein coupled receptor 55 (Homo sapiens, UniProt Q9Y2T6); test: SAR analysis of selective Agonists of GPR55 using an Image-Based Assay - Set 2. [Related pubchem assays (depositor defined):AID1961, AID1965]; type: functional
Cannabinoid receptor 2 [7] = target: T5, Cannabinoid receptor 2 (Homo sapiens, UniProt P34972); test: SAR analysis of agonists of the Cannabinoid Receptor 2 using an Image-Based Assay - Set 2. [Related pubchem assays (depositor defined):AID1961, AID1965]; type: functional
[8] = target: T3, G-protein coupled receptor 35; test: SAR analysis of Agonists of the GPR35 Receptor using an Image-Based Assay - Set 3. [Related pubchem assays (depositor defined):AID1961, AID1965]; type: functional
Cannabinoid receptor 2 [9] = target: T5, Cannabinoid receptor 2; test: SAR analysis of antagonists of the Cannabinoid Receptor 2 using an Image-Based Assay - Set 2. [Related pubchem assays (depositor defined):AID1961, AID1965]; type: functional
Cannabinoid receptor 1 [10] = target: T2, Cannabinoid receptor 1; test: SAR analysis of antagonists of the Cannabinoid Receptor 1 using an Image-Based Assay - Set 3. [Related pubchem assays (depositor defined):AID1961, AID1965]; type: functional
[11] = loss of viability in HepG2 cells – cell-based, CellTiter-Glo, cherry-picked, cytotoxicity control for Shn3 inhibitor project, dose response (AID 624134); type: functional
[12] = reduction of Shn3 3'UTR-driven luciferase in osteoblasts – cell-based, Clone20 osteoblasts, firefly luciferase, cherry-picked, dose response (AID 624132); type: functional;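 note: firefly luciferase luminescence from reporter carrying the Shn3 3'UTR in osteoblasts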
[13] = blockers of HIV-1 ZM109 envelope-driven cell-cell fusion – HeLa effector, CEM target cells, luciferase, cherry-pick, dose response (AID 652058); type: functional, cell-based;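 note: luciferase signal from HIV-1 Env mediated cell-cell fusion of effector and target cells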
HEK293 [14] = test: cells; type: functional, cell-based; details: Homo sapiens
HEK293 [15] = test: NOD2 signaling inhibitors in MDP-stimulated cells, cell-based, uHTS, luminescence (AID 2001); type: functional; details: Homo sapiens
HEK293 [16] = test: cells; type: functional, cell-based; details: Homo sapiens; remark: listed apart in the source
HEK293 [17] = test: cells; type: functional, cell-based; details: Homo sapiens; remark: listed apart in the source
[18] = target: Nucleotide-binding oligomerization domain-containing protein 2 (Homo sapiens, UniProt Q9HC29); test: inhibition of NOD2-driven NF-kB reporter – cell-based, luminescence, uHTS, HEK293 (AID 1566); type: functional
HEK293 [19] = test: inhibition of NOD1-driven NF-kB reporter – cell-based, luminescence, uHTS, primary screen (AID 1578); type: functional; details: Homo sapiens
[20] = non-specific 3'UTR reporter inhibition in Clone20-Shn3RL – cell-based, Renilla luciferase, cherry-picked, counter-screen for Shn3 inhibitor project, dose response (AID 624133); type: functional
[21] = HIV-1 AD8 envelope cell-cell fusion blockers – cherry-pick, dose response (AID 652062); type: functional, cell-based;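 note: luciferase signal from cell-cell fusion driven by HIV-1 clade B AD8 Env; potency is for inhibitors of fusion seen as a drop in luminescence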
[22] = target: T4, G-protein coupled receptor 55; test: selective activators of receptor GPR55 – imaging, U2OS cells, beta-arrestin-GFP redistribution, primary screen (AID 1961); type: functional
[23] = NIH3T3 cell viability loss – ATP luminescence, mouse fibroblasts, counter-screen, dose response (AID 2010); type: functional, cell-based;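 note: cells exposed to compound for about 90 hours before reading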
[24] = Trypanosoma cruzi growth suppression in host cells – NIH3T3 host cells, beta-gal luminescence, confirmation (AID 2044); type: functional, cell-based;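 note: intracellular parasites grown in NIH/3T3 mouse fibroblasts as host cells; luminescent beta-galactosidase reporter signal from transgenic T. cruzi replicating inside host cells; inhibitors lower the luminescence signal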
[25] = target: Intestinal-type alkaline phosphatase (Homo sapiens, UniProt P09923); test: Dose Response confirmation of uHTS hits from a small molecule inhibitors of human intestinal alkaline phosphatase via a luminescent assay. [Related pubchem assays (depositor defined):AID2544, AID2574]; type: functional
Sequence of Intestinal-type alkaline phosphatase (P09923 whole entry): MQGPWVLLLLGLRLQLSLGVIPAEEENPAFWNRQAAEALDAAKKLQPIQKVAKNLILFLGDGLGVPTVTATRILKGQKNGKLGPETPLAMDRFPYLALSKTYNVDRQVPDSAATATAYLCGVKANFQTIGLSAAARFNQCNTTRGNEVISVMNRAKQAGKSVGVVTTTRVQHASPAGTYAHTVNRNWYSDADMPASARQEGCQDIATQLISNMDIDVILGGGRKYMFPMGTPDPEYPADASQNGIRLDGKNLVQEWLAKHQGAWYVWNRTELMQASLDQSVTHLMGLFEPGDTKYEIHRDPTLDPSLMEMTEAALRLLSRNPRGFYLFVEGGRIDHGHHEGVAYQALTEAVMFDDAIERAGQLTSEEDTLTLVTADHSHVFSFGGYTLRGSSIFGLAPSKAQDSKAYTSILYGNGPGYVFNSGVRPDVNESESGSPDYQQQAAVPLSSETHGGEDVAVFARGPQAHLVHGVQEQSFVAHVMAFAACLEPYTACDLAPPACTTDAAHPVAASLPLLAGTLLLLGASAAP

T4 sequence (Q9Y2T6 whole entry): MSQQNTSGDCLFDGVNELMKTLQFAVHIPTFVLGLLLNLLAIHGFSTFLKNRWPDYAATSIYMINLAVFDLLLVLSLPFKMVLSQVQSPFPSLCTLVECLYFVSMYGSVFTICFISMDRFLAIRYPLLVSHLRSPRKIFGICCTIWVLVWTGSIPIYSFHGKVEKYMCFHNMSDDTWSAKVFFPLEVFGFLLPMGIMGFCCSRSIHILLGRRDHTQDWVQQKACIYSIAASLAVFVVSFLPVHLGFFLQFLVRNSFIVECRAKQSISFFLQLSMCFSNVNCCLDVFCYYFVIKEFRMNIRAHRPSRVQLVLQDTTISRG
T5 sequence (P34972 whole entry): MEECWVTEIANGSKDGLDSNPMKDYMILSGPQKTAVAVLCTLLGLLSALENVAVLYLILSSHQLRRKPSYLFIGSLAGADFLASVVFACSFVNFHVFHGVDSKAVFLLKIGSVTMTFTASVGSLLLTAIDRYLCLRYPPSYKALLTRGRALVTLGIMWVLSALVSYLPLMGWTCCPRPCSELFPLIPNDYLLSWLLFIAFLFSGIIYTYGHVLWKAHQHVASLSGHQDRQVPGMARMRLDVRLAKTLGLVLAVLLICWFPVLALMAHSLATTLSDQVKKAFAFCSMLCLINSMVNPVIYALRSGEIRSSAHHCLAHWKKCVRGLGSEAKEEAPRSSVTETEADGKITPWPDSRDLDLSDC
T3 sequence (Q9HC97 whole entry): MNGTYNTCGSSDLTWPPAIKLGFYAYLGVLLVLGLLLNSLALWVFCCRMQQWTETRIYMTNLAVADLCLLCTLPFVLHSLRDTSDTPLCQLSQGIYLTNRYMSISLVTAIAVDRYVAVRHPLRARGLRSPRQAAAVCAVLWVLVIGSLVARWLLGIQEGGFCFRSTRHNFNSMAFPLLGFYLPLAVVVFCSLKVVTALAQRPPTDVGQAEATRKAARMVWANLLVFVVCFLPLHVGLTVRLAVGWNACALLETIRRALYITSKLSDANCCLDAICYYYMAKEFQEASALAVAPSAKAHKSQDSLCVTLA
T2 sequence (P21554 whole entry): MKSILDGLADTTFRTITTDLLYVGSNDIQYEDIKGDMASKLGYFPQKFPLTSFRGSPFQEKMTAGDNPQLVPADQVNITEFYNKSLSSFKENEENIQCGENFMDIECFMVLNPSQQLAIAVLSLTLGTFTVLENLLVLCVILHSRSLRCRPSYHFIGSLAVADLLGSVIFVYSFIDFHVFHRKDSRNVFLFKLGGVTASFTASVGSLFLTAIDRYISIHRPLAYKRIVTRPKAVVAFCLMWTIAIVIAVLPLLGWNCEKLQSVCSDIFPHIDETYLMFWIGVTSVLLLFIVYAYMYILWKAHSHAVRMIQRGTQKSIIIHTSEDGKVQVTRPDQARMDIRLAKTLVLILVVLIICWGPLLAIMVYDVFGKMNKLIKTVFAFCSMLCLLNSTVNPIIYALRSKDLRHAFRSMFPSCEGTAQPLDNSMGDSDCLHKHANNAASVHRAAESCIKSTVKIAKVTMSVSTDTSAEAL
Sequence of Glyceraldehyde-3-phosphate dehydrogenase (P04406 whole entry): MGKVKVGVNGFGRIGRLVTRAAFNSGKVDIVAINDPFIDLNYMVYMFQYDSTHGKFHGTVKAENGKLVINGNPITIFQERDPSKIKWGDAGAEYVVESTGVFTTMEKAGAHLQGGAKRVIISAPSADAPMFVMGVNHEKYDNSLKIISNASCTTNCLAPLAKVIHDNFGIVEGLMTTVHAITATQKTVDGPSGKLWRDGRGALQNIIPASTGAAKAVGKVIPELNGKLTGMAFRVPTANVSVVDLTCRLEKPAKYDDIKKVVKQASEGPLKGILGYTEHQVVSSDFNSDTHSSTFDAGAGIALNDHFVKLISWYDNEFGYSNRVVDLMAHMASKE
Sequence of Nucleotide-binding oligomerization domain-containing protein 2 (Q9HC29 whole entry, the tested form may be a part): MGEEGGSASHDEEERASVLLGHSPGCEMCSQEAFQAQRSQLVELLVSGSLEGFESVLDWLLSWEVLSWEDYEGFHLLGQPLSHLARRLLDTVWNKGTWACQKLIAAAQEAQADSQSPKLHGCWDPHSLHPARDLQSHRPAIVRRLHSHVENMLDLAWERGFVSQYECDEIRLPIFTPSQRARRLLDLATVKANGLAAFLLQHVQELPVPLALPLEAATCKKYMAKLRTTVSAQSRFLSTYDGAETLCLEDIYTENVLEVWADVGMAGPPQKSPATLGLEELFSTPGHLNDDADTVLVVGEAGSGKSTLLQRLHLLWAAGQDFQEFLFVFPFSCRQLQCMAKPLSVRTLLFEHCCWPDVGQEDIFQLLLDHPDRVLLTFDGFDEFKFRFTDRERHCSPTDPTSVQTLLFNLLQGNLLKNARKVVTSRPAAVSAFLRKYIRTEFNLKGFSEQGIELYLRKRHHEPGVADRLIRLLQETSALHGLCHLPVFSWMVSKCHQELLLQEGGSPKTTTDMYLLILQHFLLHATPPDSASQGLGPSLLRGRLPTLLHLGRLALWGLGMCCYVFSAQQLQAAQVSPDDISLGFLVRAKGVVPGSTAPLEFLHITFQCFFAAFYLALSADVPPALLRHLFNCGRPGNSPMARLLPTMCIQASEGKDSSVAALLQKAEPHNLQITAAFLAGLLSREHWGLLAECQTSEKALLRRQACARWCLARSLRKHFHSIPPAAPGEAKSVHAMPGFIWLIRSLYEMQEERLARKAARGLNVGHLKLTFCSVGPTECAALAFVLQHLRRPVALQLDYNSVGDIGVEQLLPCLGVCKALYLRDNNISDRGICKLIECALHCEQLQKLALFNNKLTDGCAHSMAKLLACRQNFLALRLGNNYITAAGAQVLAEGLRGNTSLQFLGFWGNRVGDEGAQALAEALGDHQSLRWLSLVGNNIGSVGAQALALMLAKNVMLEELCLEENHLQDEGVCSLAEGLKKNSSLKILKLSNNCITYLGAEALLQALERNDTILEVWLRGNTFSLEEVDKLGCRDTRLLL

Structure (SMILES): Cc1sc2ncnc(N3CCN(S(=O)(=O)c4ccc(Br)cc4)CC3)c2c1C
AC50 [11]: 47.8 µM (active) | AC50 [12]: 3.59 µM (active) | AC50 [13]: 21.5 µM (active) | IC50 (HEK293 [14]): > 20 µM (inactive) | IC50 (HEK293 [15]): 5.47 µM (active) | IC50 (HEK293 [16]): 4.16 µM (active) | IC50 (HEK293 [17]): 11.6 µM (active) | EC50 [18]: 4.22 µM (active) | EC50 (HEK293 [19]): 4.21 µM (active) | AC50 [20]: 6.05 µM (active) | AC50 [21]: 21.2 µM (active)

Structure (SMILES): Cn1c(SCC(=O)N2c3ccccc3Sc3ccccc32)nc2ccccc21
EC50 [22]: 1.29 µM (active) | EC50 [23]: > 30 µM (not active) | EC50 [24]: 2.77 µM (active)

Structure (SMILES): COc1ccccc1-n1cnc2cc(NCc3ccccc3O)ccc21
EC50 [22]: 1.51 µM (active)

Structure (SMILES): COc1cc(/C=C2\SC(=S)N(N(C)c3ccccc3)C2=O)ccc1O
IC50 [25]: 13.1 µM (inactive)

More lines, now with the values ahead:

IC50 (Bcl-2-related protein A1 [1]): 8.74 µM (active) | IC50 [2]: > 100 µM (not active) | IC50 (Bcl-2-related protein A1 [3]): 2.56 µM (active)
Structure (SMILES): CN1CCN(C2=C(Cl)C(=O)N(c3cccc(Cl)c3Cl)C2=O)CC1

EC50 (Cannabinoid receptor 1 [4]): > 32 µM (inactive) | IC50 [5]: > 32 µM (inactive) | EC50 [6]: 6.98 µM (active) | EC50 (Cannabinoid receptor 2 [7]): > 32 µM (inactive) | EC50 [8]: > 32 µM (inactive) | IC50 (Cannabinoid receptor 2 [9]): > 32 µM (inactive) | IC50 (Cannabinoid receptor 1 [10]): > 32 µM (inactive)
Structure (SMILES): CN(C)S(=O)(=O)c1ccc(Cl)c(C(=O)N2CCN(c3ccc([N+](=O)[O-])cc3)CC2)c1
